{"source": "patent US7572596B2", "about": "“Modulation of the neuroendoctrine system as a therapy for motor neuron disease” (University of Pittsburgh of the Commonwealth System of …, priority 2004, dated 2009)", "origin": "cited, not measured here", "key": {"human ALS patients": {"system": "human ALS patients", "settings": "2003; for efficacy in human ALS patients: Groeneveld, Desnuelle, 2001"}, "SOD1 transgenic mice": {"system": "SOD1 transgenic mice", "settings": "Groeneveld, 2003, Desnuelle, 2001"}, "[1]": {"system": "transgenic model for multiple sclerosis", "settings": "direct administration; Fernandez et al, 2004"}}, "data": [{"smiles": "CN(CC(=O)O)C(=N)N", "note": "[Creatine]", "values": [{"measurement": "efficacy in human ALS patients", "setting": "human ALS patients", "value": "minimal efficacy"}, {"measurement": "efficacy in relieving the symptoms of ALS", "setting": "SOD1 transgenic mice", "value": "some efficacy"}]}, {"smiles": "Nc1nc2ccc(OC(F)(F)F)cc2s1", "note": "[Riluzole]", "values": [{"measurement": "life expectancy of ALS patients", "setting": "human ALS patients; ALS patients, Miller", "value": "extends life expectancy by only a few months"}]}, {"smiles": "NC(Cc1cc(I)c(Oc2cc(I)c(O)c(I)c2)c(I)c1)C(=O)O", "note": "(stereo not shown) [T4]", "values": [{"measurement": "axonal pathology", "setting": "[1]", "value": "neuroprotective for axonal pathology"}, {"measurement": "remyelination", "setting": "[1]", "value": "enhances remyelination"}]}, {"smiles": "Cc1c(C)c2c(c(C)c1O)CC[C@@](C)(CCC[C@H](C)CCC[C@H](C)CCCC(C)C)O2", "note": "[a-tocopherol]", "values": [{"measurement": "efficacy in human ALS patients", "setting": "human ALS patients", "value": "minimal efficacy"}, {"measurement": "efficacy in relieving the symptoms of ALS", "setting": "SOD1 transgenic mice", "value": "some efficacy"}]}]}
